Values of other authors, collected in patent US20020055536A1, “System and method for structure-based drug design that includes accurate prediction of binding free energy” (priority 1996, published 2002).
pKi: −log10 of the molar value.

Assays:
[1] = molecular target: T1, HIV-1 protease (Human immunodeficiency virus type 1 group M subtype B, UniProt P04585)
T1 construct: The following HIV-1 protease ligands were tested by the method of the present invention

[2] = molecular target: purine nucleoside phosphorylase; conditions: for IC50: 1 mM phosphate, Ki or IC50 not distinguished; for Phosphate sensitivity: change of binding constant upon increase of phosphate to 50 mM

Row | IC50 [2] [µM] | SMILES | pKi [1] | Phosphate sensitivity [2]
1 |  | C=CC(C)(C)C(=O)c1cnc(C(Cc2ccccc2)CC(O)C(Cc2ccccc2)NC(=O)OC(C)(C)C)[nH]1 (centres unmarked) [A Boc CMe2CHCH2] | 6.57 | 
2 | 300 | Nc1nc2c(ncn2[C@H]2C[C@H](O)[C@@H](COP(=O)(O)O)O2)c(=O)[nH]1 [dGMP] |  | low (those whose binding constant changes by a factor of 15 or less upon increase of the concentration of phosphate to 50 mM)
3 |  | CC(C)C(O)c1cnc(C(Cc2ccccc2)CC(O)C(Cc2ccccc2)NC(=O)OC(C)(C)C)[nH]1 [B Boc i-Pr(R)] | 5.57 | 
4 | 32 | Nc1nc2c(ncn2[C@H]2C[C@H](O)[C@@H](COP(=O)(O)OP(=O)(O)OP(=O)(O)O)O2)c(=O)[nH]1 [dGTP] |  | high (The highly sensitive molecules are affected in some instances by a factor of 140)
5 |  | CC(=O)c1cnc(C(Cc2ccccc2)CC(O)C(Cc2ccccc2)NC(=O)OC(C)(C)C)[nH]1 (centres unmarked) [A Boc Me] | 6.43 | 
6 |  | CC(C)C(NC(=O)C(Cc1ccccc1)CC(O)C(Cc1ccccc1)NC(=O)OC(C)(C)C)c1ncc[nH]1 (centres unmarked) [D CH] | 7.74 | 
7 |  | CCCC(=O)c1cnc(C(Cc2ccccc2)CC(O)C(Cc2ccccc2)NC(=O)OC(C)(C)C)[nH]1 (centres unmarked) [A Boc n-Pr] | 6.82 | 
8 | 0.31 | Nc1nc2c(ncn2COCCOP(=O)(O)OP(=O)(O)OP(=O)(O)O)c(=O)[nH]1 [acyclovirTP] |  | high (The highly sensitive molecules are affected in some instances by a factor of 140)
9 | 360 | Nc1nc2c(ncn2[C@@H]2O[C@H](COP(=O)(O)OP(=O)(O)O)[C@@H](O)[C@H]2O)c(=O)[nH]1 [GDP] |  | low (those whose binding constant changes by a factor of 15 or less upon increase of the concentration of phosphate to 50 mM)
10 |  | CC(O)c1cnc(C(Cc2ccccc2)CC(O)C(Cc2ccccc2)NC(=O)OC(C)(C)C)[nH]1 [B Boc Me(S)] | 4.88 | 
11 |  | CC(C)C(=O)c1cnc(C(Cc2ccccc2)CC(O)C(Cc2ccccc2)NC(=O)OC(C)(C)C)[nH]1 (centres unmarked) [A Boc i-Pr] | 7.08 | 
12 |  | CCC(=O)c1cnc(C(Cc2ccccc2)CC(O)C(Cc2ccccc2)NC(=O)OC(C)(C)C)[nH]1 (centres unmarked) [A Boc Et] | 7.04 | 
13 |  | CC(C)(C)OC(=O)NC(Cc1ccccc1)C(O)CC(Cc1ccccc1)c1ncc(C=O)[nH]1 (centres unmarked) [A Boc H] | 5.46 | 
14 |  | Nc1nc(O)c2ncn(COCCOP(=O)(O)OP(=O)(O)O)c2n1 [acyclovirDP] |  | high (The highly sensitive molecules are affected in some instances by a factor of 140)
15 | 490 | Nc1nc2c(ncn2[C@@H]2O[C@H](COP(=O)(O)OP(=O)(O)OP(=O)(O)O)[C@@H](O)[C@H]2O)c(=O)[nH]1 [GTP] |  | low (those whose binding constant changes by a factor of 15 or less upon increase of the concentration of phosphate to 50 mM)
16 |  | CC(O)c1cnc(C(Cc2ccccc2)CC(O)C(Cc2ccccc2)NC(=O)OC(C)(C)C)[nH]1 [B Boc Me(R)] | 4.88 | 
17 | 6.6 | Nc1nc2c(ncn2COCCOP(=O)(O)O)c(=O)[nH]1 [acyclovirMP] |  | low (those whose binding constant changes by a factor of 15 or less upon increase of the concentration of phosphate to 50 mM)
18 |  | CC(C)C(O)c1cnc(C(Cc2ccccc2)CC(O)C(Cc2ccccc2)NC(=O)OC(C)(C)C)[nH]1 [B Boc iPr(S)] | 5.57 | 
19 |  | CC(C)C(NC(=O)C(Cc1ccccc1)CC(O)C(Cc1ccccc1)NC(=O)OC(C)(C)C)c1nnc[nH]1 (centres unmarked) [D N] | 8.38 | 
20 | 200 | Nc1nc2c(ncn2COCCO)c(=O)[nH]1 [acyclovir] |  | low (those whose binding constant changes by a factor of 15 or less upon increase of the concentration of phosphate to 50 mM)
21 | 530 | Nc1nc2c(ncn2[C@@H]2O[C@H](COP(=O)(O)O)[C@@H](O)[C@H]2O)c(=O)[nH]1 [GMP] |  | low (those whose binding constant changes by a factor of 15 or less upon increase of the concentration of phosphate to 50 mM)
